Source: patent EP4653443A1, “STEREOISOMER AND DEUTERATED DERIVATIVE OF PYRAZOLOQUINAZOLINE COMPOUND AND USE” (Phil Rivers Technology Co., Ltd, priority 2023, dated 2024)
Values after ≈ are worked out from the molar mass of the structure shown.

How the values were obtained:
[1] = system: Caco-2 cells; assay: Permeability and transporter substrate test in Caco-2 cells (ABBA); assay type: in vitro ADME; conditions: Caco-2
Procedure: (§1) Apparent permeability coefficient (Papp, cm/s) and efflux ratio were calculated using Microsoft Excel.

[2] = as above; assay type: in vitro ADME; conditions: human, pH 7.4; for Papp A→B at 2 h, 5 µM: Caco-2, A to B, read-out: Average Papp PappA-B; for Papp B→A at 2 h, 5 µM: Caco-2, B to A, read-out: Average Papp PappB-A; for efflux ratio at 2 h, 5 µM: Caco-2, Papp(B-A)/Papp(A-B), read-out: Efflux Rate (ERa)
Procedure: as §1

[3] = system: pancreatic cancer cell line (PSN1); assay: Proliferation inhibitory activity on cell line PSN1 (CellTiter-Glo, 72 hours); assay type: cell-based; conditions: for IC50: Homo sapiens, PSN1 cell proliferation; for Max Inhibition Percentage: PSN1 cells
Procedure: • a) Adherent cells need to be digested and centrifuged, while suspension cells can be directly centrifuged; • b) Resuspend with complete culture medium and count using an automatic cell counter; • c) Plate 6,000 cells per well for PSN1, and dilute the cell suspension to the required density; • d) Add 100 µL of cells per well, and culture overnight at 37°C in a 5% CO2 incubator to stabilize and balance the cells.
• a) Prepare the compound with DMSO as a solution of 200-fold final concentration; • b) Dilute the 200-fold compound to a 3-fold final concentration with complete culture medium; • c) Add 50 µL of the compound per well, use wells with the same volume of culture medium as controls, and continue culturing in a 37°C, 5% CO2 incubator for 72 hours.
• a) Equilibrate the cell plate and CTG reagent to room temperature; • b) Add 30 µL of CellTiter-Glo® reagent per well; • c) Incubate at room temperature for 15 minutes; • d) Detect with a microplate reader.
• 1) Calculate IC50 using GraphPad Prism 8; • 2) %Inh = (1-(Raw data - Meanmin) / (Meanmax - Meanmin))×100; • 3) Meanmax is the positive control well with only cells and the same volume of culture medium; • 4) Meanmin is the negative control well with only culture medium; • 5) Raw data refers to the signal values of wells with added compounds. For two replicate wells, they are denoted as Raw1 and Raw2.

[4] = in vivo; conditions: mouse, in vivo, iv, 2 mg/kg
Procedure: (§4) The objective of this study is to investigate the pharmacokinetic properties of the disclosed compounds after tail vein intravenous injection (IV) and oral administration (PO) in female CD1 mice. Plasma was sampleed at 0, 0.083, 0.25, 0.5, 1, 2, 4, 7 and 24 hours post-dosing, and the drug concentrations in plasma at different time points were detected by LC-MS/MS, and the relevant pharmacokinetic parameters were calculated using WinNonlin software.
(§5) Experimental female CD1 mice were purchased from SPF Laboratory Animal Technology Co., Ltd., aged 6-8 weeks with body weights of 20-30 g. The female CD1 mice were housed in a controlled environment (set temperature at 20-25°C and relative humidity at 40-70%). A 12-hour light/12-hour dark cycle was maintained unless interrupted by study-related events.
(§6) Compound solutions are prepared in an ultra-clean workbench and prepared immediately before use, and mixed thoroughly prior to use to ensure formulation homogeneity.
(§7) Vehicle composition: 10% DMSO+90% (20%SBE-β-CD) Table 4. Doses Used in IV Administration
(§8) Vehicle composition: 10% DMSO + 90% (20%SBE-β-CD) Table 5. Doses Used in PO Administration
(§9) Vehicle composition: 0.5% MC + 1% Tween-20 Table 6. Doses Used in PO Administration
(§10) Prior to the experiment, the animals were randomly grouped. The mice were fasted for 12 hours before drug administration, and free feeding was resumed 4 hours after administration.
(§11) All blood samples were transferred into plastic microcentrifuge tubes containing anticoagulant (EDTA-K2), and then centrifuged at 4000 g for 5 minutes at 4°C. The supernatant was transferred into a microcentrifuge tube without anticoagulant, and the plasma was stored in a -75±15°C refrigerator until detection.
(§12) The blood samples were purified by HPLC and analyzed by mass spectrometry to obtain the plasma concentration-time curve of the disclosed compound.
(§13) The pharmacokinetic parameters were estimated by non-compartmental model method (calculated by Phoenix WinNonlin software).

[5] = Metabolic stability in liver microsomes (human); assay type: in vitro ADME; conditions: for Residual Amount (%) 15 min / Residual Amount (%) 30 min / Residual Amount (%) 45 min / Residual Amount (%) 60 min: Human, first line of pair
Procedure: (§2) For negative samples, add 80µL of PBS (100mM, pH = 7.4) solution. Vortex at 800 rpm for 10 seconds, then pre-incubate in a 37°C water bath for 10 minutes. • 4) After pre-incubation, add 2 µL of control drug or test compound to each well to initiate the reaction. The reaction is carried out in a 37°C water bath at 60 rpm. • 5) At 0.5, 15, 30, 45, and 60 minutes, take 50 µL of the reaction system from each well and add it to 200 µL of cold methanol solution containing the internal standard to terminate the reaction. • 6) Mix thoroughly and centrifuge at 4000 rpm at 4°C for 30 minutes. • 7) Take 100µL of supernatant and mix with 100µL ultrapure water for liquid-mass analysis. *Internal standards: 50nM alprazolam, 50nM labetalol and 100nM ketoprofen
(§3) The internal standard method is adopted, and the ratio of the sample peak area to the internal standard peak area is used to calculate the residual percentage (taking the ratio of the sample peak area to the internal standard peak area at 0.5 minutes as 100%).

[6] = Thermodynamic solubility test; assay type: physicochemical; conditions: phosphate buffer, aqueous buffer, thermodynamic from solid, pH 7.4, 25°C
Procedure: Weigh 7.098 g Na2HPO4 (Solution A) and dissolve in 500 mL ultrapure water via sonication; weigh 3.40 g KH2PO4 (Solution B) and dissolve in 250 mL ultrapure water via sonication. Slowly add Solution B dropwise to Solution A and adjust the pH to 7.40 ± 0.05.
Shake at 1100 rpm, 25°C for 5 minutes; • i) Add 10 µL of the 1 mg/mL DMSO sample and 10 µL of buffer to 980 µL of methanol, then dilute 10-fold with methanol:water (1:1) as the standard sample for LC-MS/MS analysis.
Solubility was calculated using Excel. Solubility(μM) = (Areafiltered × DFfiltered)/(Areastd × DFstd) × [std] × DFstd [formula]

[7] = Metabolic stability in liver microsomes (mouse); assay type: in vitro ADME; conditions: for Residual Amount (%) 15 min / Residual Amount (%) 30 min / Residual Amount (%) 45 min / Residual Amount (%) 60 min: Mouse, first line of pair
Procedure: as §2, §3

[8] = Pharmacokinetic study in mice (IV and PO, plasma LC-MS/MS); conditions: PO 5 mg/kg vs IV 2 mg/kg
Procedure: as §4, §5, §6, §7, §8, §9, §10, §11, §12, §13

Structure (SMILES) | Classification Efflux Transporter Substrate [1] | Papp A→B at 2 h, 5 µM [2] | Papp B→A at 2 h, 5 µM [2] | efflux ratio at 2 h, 5 µM [2] | IC50 [3] | Max Inhibition Percentage ([3]; first column of this head) | Max Inhibition Percentage ([3]; second column of this head) | AUC(0-t) [4] | Vd [4] | clearance [4] | half-life [4] | Residual Amount (%) 15 min [5] | Residual Amount (%) 30 min [5] | Residual Amount (%) 45 min [5] | Residual Amount (%) 60 min [5] | Residual Amount (%) 15 min [7] | Residual Amount (%) 30 min [7] | Residual Amount (%) 45 min [7] | Residual Amount (%) 60 min [7] | F [8] | further results
NC(=O)c1nn(CCO)c2c1CCc1cnc(Nc3cc(N4CCN5CCC[C@@H]5C4)ccc3OC(F)(F)F)nc1-2 [CPD02] | Probable (ERa ≧ 2) | 7.83 ×10⁻⁶ cm/s | 23.8 ×10⁻⁶ cm/s | 3.04 | 67.6 nM | 80.8 | 6.7 | 404 ng·h/mL | 3.05 L/kg | 81.7 mL/min/kg | 81.6 min | 54.16% | 32.53% | 22.97% | 13.71% | 56.76% | 39.33% | 30.29% | 26.56% | 38.0% | half-life ([5]; Human liver microsomes): 21.4 min; microsomal CLint ([5]; Human liver microsomes): 64.8 µL/min/mg; solubility at 24 h [6]: 2.1 µg/mL (≈ 3.76 µM); half-life ([7]; Mouse liver microsomes): 31.5 min; microsomal CLint ([7]; Mouse liver microsomes): 44 µL/min/mg
NC(=O)c1nn(CCO)c2c1CCc1cnc(Nc3cc(N4CCN5CCC[C@H]5C4)ccc3OC(F)(F)F)nc1-2 [CPD03] |  |  |  |  | 256 nM | 73.6 | -3.1 | 433 ng·h/mL | 4.29 L/kg | 79.1 mL/min/kg | 226 min |  |  |  |  |  |  |  |  | 16.2% | 
O=C(O)Cc1ccccc1Nc1c(Cl)cccc1Cl [Diclofenac, reference compound] |  |  |  |  |  |  |  |  |  |  |  | 10.78% | 5.62% | 3.65% | 2.93% | 61.24% | 56.66% | 51.87% | 45.26% |  | microsomal CLint at 2 µM ([5]; pH 7.4, Human liver microsomes): 194 µL/min/mg; microsomal CLint ([7]; male, CD-1, pH 7.4, Mouse liver microsomes): 67.6 µL/min/mg
C[C@H]1O[C@@H](O[C@H]2[C@@H](O)C[C@H](O[C@H]3[C@@H](O)C[C@H](O[C@H]4CC[C@@]5(C)[C@H](CC[C@@H]6[C@@H]5C[C@@H](O)[C@]5(C)[C@@H](C7=CC(=O)OC7)CC[C@]65O)C4)O[C@@H]3C)O[C@@H]2C)C[C@H](O)[C@@H]1O [Digoxin] | Probable (ERa ≧ 2) | 0.94 ×10⁻⁶ cm/s | 26.1 ×10⁻⁶ cm/s | 27.8 |  |  |  |  |  |  |  |  |  |  |  |  |  |  |  |  | 
COc1cc2nc(N3CCN(C(=O)c4ccco4)CC3)nc(N)c2cc1OC [Prazosin] |  | 8.97 ×10⁻⁶ cm/s | 29.6 ×10⁻⁶ cm/s |  |  |  |  |  |  |  |  |  |  |  |  |  |  |  |  |  | 
CC(C)NCC(O)COc1cccc2ccccc12 (centres unmarked) [Propranolol] | Unlikely or Not (ERa<2) | 22.3 ×10⁻⁶ cm/s | 14.7 ×10⁻⁶ cm/s | 0.66 |  |  |  |  |  |  |  |  |  |  |  |  |  |  |  |  | 
